Results as given in patent US20110136844A1, “METHODS FOR INHIBITING DYRK1A TO TREAT CENTRAL NERVOUS SYSTEM DISEASES AND DISORDERS” (MediProPharma, Inc., priority 2009, published 2011).
Marks after values point to notes of the source that are not given here.

Tests used:
[1] = Brain-plasma pharmacokinetics after single 10 mg/kg bolus i.v. injection in normal rats; type: in vivo, Sprague-Dawley rats; conditions: rat, 10 mg/kg i.v., the data is the value of AUC(inf)
Protocol: (§1) (IV) Pharmacokinetic Studies
(§2) The pharmacokinetic studies in Sprague-Dawley rats were performed using the protocols developed by WuXi AppTec (St. Paul, Minn., USA, and Shanghai, China. http://www.apptecls.com/).
The brain exposure of the compound of Example 1 is about […] higher than that required for inhibition of DYRK1A, with a Kd and IC50 at about 1 uM, or 280 ng/mL.

[2] = Plasma pharmacokinetics after single dose in normal rats; type: in vivo, Sprague-Dawley rats; conditions: rat plasma, i.v. 10 mg/kg
Protocol: as §1, §2

- AUC0-t of Plasma ([1]; time 8 h): 2350^b ng · h/mL
- AUC0-t of Plasma ([1]; time 24 h): 2350^b ng · h/mL
- Co [2]: 4100 ng/mL
Compound: Cc1nc2c(c3c1[nH]c1ccccc13)C(=O)CC(C)(C)C2 [Example 1, 3,3,6-trimethyl-2,3,4,7-tetrahydroindolo[2,3-c]quinolin-1-one]
